The values below come from patent publication US9365574B2, “Soluble guanylate cyclase activators” (Merck Sharp & Dohme Corp., priority 2010, dated 2016).

The target of this data set is T1, sGC (Homo sapiens, UniProt Q02108+Q02153).
T1 construct: expressed in transfected cells; host or cells: CHO-K1 (clone #7, CHO-K1/sGC)
T1 sequence (Q02108 1-690): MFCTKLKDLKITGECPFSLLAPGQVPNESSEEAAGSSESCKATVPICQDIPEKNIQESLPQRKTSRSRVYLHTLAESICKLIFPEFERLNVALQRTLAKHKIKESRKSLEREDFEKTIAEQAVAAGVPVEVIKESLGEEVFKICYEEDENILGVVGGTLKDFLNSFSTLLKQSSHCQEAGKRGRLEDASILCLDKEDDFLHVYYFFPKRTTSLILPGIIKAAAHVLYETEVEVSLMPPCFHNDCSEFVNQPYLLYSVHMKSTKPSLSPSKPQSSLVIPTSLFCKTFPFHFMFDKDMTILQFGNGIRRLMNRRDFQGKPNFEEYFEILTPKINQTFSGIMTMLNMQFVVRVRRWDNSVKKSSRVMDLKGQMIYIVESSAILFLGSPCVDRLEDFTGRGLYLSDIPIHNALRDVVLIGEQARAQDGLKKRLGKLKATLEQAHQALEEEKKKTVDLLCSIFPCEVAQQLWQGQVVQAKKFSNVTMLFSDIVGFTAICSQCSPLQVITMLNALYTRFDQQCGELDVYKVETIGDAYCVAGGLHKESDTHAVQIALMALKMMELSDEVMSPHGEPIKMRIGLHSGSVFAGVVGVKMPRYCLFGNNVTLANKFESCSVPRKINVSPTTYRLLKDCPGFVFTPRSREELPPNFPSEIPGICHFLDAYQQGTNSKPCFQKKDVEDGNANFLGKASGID
T1 sequence (Q02153 1-619): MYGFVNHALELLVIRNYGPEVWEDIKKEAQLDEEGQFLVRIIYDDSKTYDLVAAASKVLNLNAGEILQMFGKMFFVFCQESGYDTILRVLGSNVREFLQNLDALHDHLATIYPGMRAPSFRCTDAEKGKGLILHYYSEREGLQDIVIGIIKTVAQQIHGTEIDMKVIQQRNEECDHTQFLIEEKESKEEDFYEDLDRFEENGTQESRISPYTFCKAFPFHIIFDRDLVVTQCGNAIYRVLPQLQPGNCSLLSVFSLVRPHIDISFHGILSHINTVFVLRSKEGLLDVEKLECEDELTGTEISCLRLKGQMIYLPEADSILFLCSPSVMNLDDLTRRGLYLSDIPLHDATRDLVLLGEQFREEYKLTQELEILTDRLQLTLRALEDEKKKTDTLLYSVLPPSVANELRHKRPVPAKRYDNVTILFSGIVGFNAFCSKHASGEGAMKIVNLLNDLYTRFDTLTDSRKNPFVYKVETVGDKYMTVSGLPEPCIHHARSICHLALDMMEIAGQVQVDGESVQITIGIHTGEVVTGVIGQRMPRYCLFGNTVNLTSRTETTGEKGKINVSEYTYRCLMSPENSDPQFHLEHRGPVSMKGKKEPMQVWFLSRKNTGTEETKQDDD
As to the kind of experiment: Cell-based sGC Functional Assay (CASA Assay), cGMP generation in CHO-K1/sGC cells. The note with it: without ODQ incubation; for EC50: read-out: inflection points (IP). The source says:
Cell-based sGC Functional Assay (CASA Assay)
sGC is a heme-containing enzyme that converts GTP to secondary messenger cGMP. Increases in cGMP levels affect several physiological processes including vasorelaxation through multiple downstream pathways. […] Heme-dependent activators (HDAs) preferentially activate sGC containing a ferrous heme group. To determine the effect of sGC activators on enzyme activity, the CASA assay was developed to monitor the generation of cGMP in a cell line that stably expresses the heterodimeric sGC protein.
A CHO-K1 cell line stably expressing the sGC a up heterodimer was generated using a standard transfection protocol. CHO-K1 cells were transfected with plasmids pIREShyghsGCα1 and pIRESneo-hsGCβ1 simultaneously using FUGENE reagent. Clones that stably express both subunits were selected with hygromycin and neomycin for weeks. Clone #7 was chosen for the assay and was designated CHO-K1/sGC. CHO-K1/sGC cells were maintained in F-K12 medium containing 10% heat-inactivated Fetal Bovine Serum (FBS), 100 μg/mL penicillin/streptomycin, 0.5 mg/mL hygromycin and 0.25 mg/mL G418. On the day of the assay, cells were harvested in EBSS Assay Buffer (EAB) containing 5 mM MgCl2, 10 mM HEPES (4-(2-hydroxyethyppiperazine-1-ethanesulfonic acid) and 0.05% BSA (bovine serum albumin) and cell density was adjusted to 2×10^6/mL with EAB. IBMX (3-isobutyl-1-methylxanthin, 0.5 mM) was added to inhibit degradation of cGMP. Compounds were diluted from DMSO stock solutions and added to the assay at a final DMSO concentration of 1%. Cells were incubated with compounds in the presence and absence of 10 μM of 1H-(1,2,4)oxadiazolo(4,3-a) quinoxalin-1-one (ODQ) for 1 hr at 37° C. At the end of the incubation period, the reaction was terminated and the cells were lysed. The level of intracellular cGMP was determined using an HTRF-based assay kit (CisBio, 62GM2PEC), which detects the displacement of a fluorescence labeled cGMP from its specific antibody. The amount of cGMP was plotted against compound concentration in PRISM software and the IP and maximum fold induction over DMSO control were derived from the plot.

With `CC1(c2ccccc2)C(=O)Nc2nc(-n3nc(CCC(F)(F)C(F)(F)F)c4cc(Cl)ccc43)nc(N)c21` (stereo not drawn) [Example 2, 4-Amino-2-[5-Chloro-3-(3,3,4,4,4-Pentafluorobutyl)-1H-Indazol-1-yl]-5-Methyl-5-Phenyl-5,7-Dihydro-6H-Pyrrolo[2,3-D]Pyrimidin-6-One], the “Maximum fold induction over DMSO control” value was found to be 133 and the EC50 is 114 nM.
The matching figures for `CC1(c2ccccc2)C(=O)Nc2nc(-c3nn(CCC(F)(F)C(F)(F)F)c4cc(Cl)ccc34)nc(N)c21` (stereo not drawn) [Example 58, 4-Amino-2-[6-Chloro-1-(3,3,4,4,4-Pentafluorobutyl)-1H-Indazol-3-yl]-5-Methyl-5-Phenyl-5,7-Dihydro-6H-Pyrrolo[2,3-D]Pyrimidin-6-One]: 225 and 50 nM.
The matching figures for `CC1(c2ccc(F)cc2)C(=O)Nc2nc(-c3nc(CCC(F)(F)C(F)(F)F)n4cc(Cl)ccc34)nc(N)c21` (stereo not drawn) [Example 105, 4-Amino-2-[6-Chloro-3-(3,3,4,4,4-Pentafluorobutyl)Imidazo[1,5-A]Pyridin-1-yl]-5-(4-Fluorophenyl)-5-Methyl-5,7-Dihydro-6H-Pyrrolo[2,3-D]Pyrimidin-6-One]: 150 and 258 nM.
Regarding `CC1(c2ccccc2)C(=O)Nc2nc(-c3nc(CCC(F)(F)C(F)(F)F)n4cc(Cl)ccc34)nc(N)c21` (stereo not drawn) [Example 136, 4-amino-2-[6-chloro-3-(3,3,4,4,4-pentafluorobutyl)imidazo[1,5-a]pyridin-1-yl]-5-methyl-5-phenyl-5,7-dihydro-6H-pyrrolo[2,3-d]pyrimidin-6-one], the “Maximum fold induction over DMSO control” value is listed as 52 and the EC50 turned out to be 139 nM.
The matching figures for `CC1(c2ccccc2)C(=O)Nc2nc(-c3nn(CCC(F)(F)C(F)(F)F)c4cc(F)ccc34)nc(N)c21` (stereo not drawn) [Example 70, 4-amino-2-[6-fluoro-1-(3,3,4,4,4-pentafluorobutyl)-1H-indazol-3-yl]-5-methyl-5-phenyl-5,7-dihydro-6H-pyrrolo[2,3-d]pyrimidin-6-one]: 126 and 46 nM.
In the case of `CC1(c2ccccc2)C(=O)Nc2nc(-n3nc(CCC(F)(F)C(F)(F)F)c4cc(F)ccc43)nc(N)c21` (stereo not drawn) [Example 26, 4-amino-2-[5-fluoro-3-(3,3,4,4,4-pentafluorobutyl)-1H-indazol-1-yl]-5-methyl-5-phenyl-5,7-dihydro-6H-pyrrolo[2,3-d]pyrimidin-6-one], the “Maximum fold induction over DMSO control” value came to 156 and the EC50 is 212 nM.
